These results are taken from patent US9321809B2, “Macrocyclic compounds for suppressing replication of hepatitis C virus” (Ginkgo Pharma Co., Ltd., priority 2012, dated 2016).

The test concerns HCV replicon-containing huh-7 cells (replicon 1b). In words: HCV Replicon Assay (luciferase readout). In kind it is cell-based. The following applies: Hepatitis C virus; HCV replicon 1b in huh-7 cells, 48 h incubation, 1% DMSO, luciferase signal; read-out: EC50 (EC 50 on replicon 1b). The method, then: Compounds of formuala (I) are tested for the ability to inhibit viral replication of the Hepatitis C viruses by the following in vitro assays.
DMEM (Life Technologies #41965-039) was supplemented with 10% FBS, 2 mM L-glutamine (Life Technologies #25030-024), penicillin (100 units/ml)/streptomycin (100 micrograms/ml) (Life Technologies #15140-114), 1× non-essential amino acids (Life Technologies #11140-035).
Complete media was prepared by mixing FBS, DMEM media with Geneticin (G418). The compete media was preincubated at 37° C. in a CO2 incubator. Then, HCV replicon-containing huh-7 cells (V. Lohmann et. al. Science, 285, (1999)110-113) was taken out from 37° C. incubator. The residual medium was absorbed, and the cells were washed with PBS. After washing fluid was removed, 1 ml 0.25% trypsin/0.02% EDTA solution. The cells were washed by the above trypsin/EDTA solution to make sure that each cell was cleaned. After the trypsin/EDTA solution was absorbed, the mixture was incubated at 37° C. in a CO2 incubator for 3-5 minutes. Morphological changes were observed by inverted microscope, till the cells were detached from the wall of container completely.
3 ml of complete media was added to make the cells to suspend. The cells are counted with hematometer. Appropriate volumes of the complete media was added to adjust the cell density to 100,000/ml. Cells were plated with 100 μl of suspension at 10,000/well of 96 well plate. Plates were placed into 37° C. 5% CO2 incubator for 24 h.
Preparation of Drug Solution:
Drugs were diluted under aseptic conditions.
Stock solutions may be prepared before the assay, which means that the test compounds are dissolved in 100% DMSO to afford a final concentration of 2 mM. Before the 96 well culture was completed, the stock solution was diluted with culter media to 100 fold of the final concentration (100× solution).
96-well plates were taken out from 37° C. CO2 incubator and morphological changes were observed by inverted microscope. In a ventilator, 1 μl of 100× drug solution was added to wells of 96 well plate until the final concentration of DMSO in the mixture is 1%. The plates were incubated at 37° C. in a CO2 environment for 48 h. 30 μl of Stead-G1® Luciferase Assay System (bought from Promega) was added to each well of 96 well plates and each plate is shaken in a plate shaker for 5 minutes to ensure cells cleavaged completely. The fluorescence signal was quantitated in a Perkin-Elmer plate reader (Envision) and integral time was setted to be 2 second. The following data were achieved after recording and analyzing the data.
As a reminder, the EC50 is the concentration giving half of the maximal effect. On to `C=C[C@@H]1C[C@]1(NC(=O)[C@@H]1C[C@@H]2CN1C(=O)[C@H](C(C)(C)C)NC(=O)[C@@H](NC(=O)NC(C)(C)C)COC/C=C/c1cccc3c1CN(C3)C(=O)O2)C(=O)NS(=O)(=O)C1CC1` [Compound IIa-12, (1R,12E,17S,20S,23S)-20-tert-butyl-17-[(tert-butylcarbamoyl)amino]-N-[(1R,2S)-1-[(cyclopropanesulfonyl)carbamoyl]-2-ethenylcyclopropyl]-3,18,21-trioxo-2,15-dioxa-4,19,22-triazatetracyclo[20.2.1.1^4,7.0^6,11]hexacosa-6,8,10,12-tetraene-23-carboxamide], for which the 50% effective concentration (EC50) was < 10 nM.
With `C=C[C@@H]1C[C@]1(NC(=O)[C@@H]1C[C@@H]2CN1C(=O)[C@H](C(C)(C)C)NC(=O)[C@@H](NC(=O)OC(C)(C)C)COCCCc1cccc3c1CN(C3)C(=O)O2)C(=O)NS(=O)(=O)C1CC1` [Compound IIa-13, tert-butyl N-[(1R,17S,20S,23S)-20-tert-butyl-23-{[(1R,2S)-1-[(cyclopropanesulfonyl)carbamoyl]-2-ethenylcyclopropyl]carbamoyl}-3,18,21-trioxo-2,15-dioxa-4,19,22-triazatetracyclo[20.2.1.1^4,7.0^6,11]hexacosa-6,8,10-trien-17-yl]carbamate] the figure was 10 to 50 nM.
With `CC[C@@H]1C[C@]1(NC(=O)[C@@H]1C[C@@H]2CN1C(=O)[C@H](C(C)(C)C)NC(=O)[C@@H](NC(=O)OC(C)(C)C)COCCCc1cccc3c1CN(C3)C(=O)O2)C(=O)NS(=O)(=O)C1CC1` [Compound IIa-14, tert-butyl N-[(1R,17S,20S,23S)-20-tert-butyl-23-{[(1R,2R)-1-[(cyclopropanesulfonyl)carbamoyl]-2-ethylcyclopropyl]carbamoyl}-3,18,21-trioxo-2,15-dioxa-4,19,22-triazatetracyclo[20.2.1.1^4,7.0^6,11]hexacosa-6,8,10-trien-17-yl]carbamate] the figure was 50 to 500 nM.
With `CC[C@@H]1C[C@]1(NC(=O)[C@@H]1C[C@@H]2CN1C(=O)[C@H](C(C)(C)C)NC(=O)[C@@H](NC(=O)OC(C)(C)C)COC/C=C/c1cccc3c1CN(C3)C(=O)O2)C(=O)NS(=O)(=O)C1CC1` [Compound IIa-15, tert-butyl N-[(1R,12E,17S,20S,23S)-20-tert-butyl-23-{[(1R,2R)-1-[(cyclopropanesulfonyl)carbamoyl]-2-ethylcyclopropyl]carbamoyl}-3,18,21-trioxo-2,15-dioxa-4,19,22-triazatetracyclo[20.2.1.1^4,7.0^6,11]hexacosa-6,8,10,12-tetraen-17-yl]carbamate] the figure was < 10 nM; with `C=C[C@@H]1C[C@]1(NC(=O)[C@@H]1C[C@@H]2CN1C(=O)[C@H](C1CCCCC1)NC(=O)[C@@H](NC(=O)OC(C)(C)C)COCCCc1cccc3c1CN(C3)C(=O)O2)C(=O)NS(=O)(=O)C1CC1` [Compound IIa-17, tert-butyl N-[(1R,17S,20S,23S)-20-cyclohexyl-23-{[(1R,2S)-1-[(cyclopropanesulfonyl)carbamoyl]-2-ethenylcyclopropyl]carbamoyl}-3,18,21-trioxo-2,15-dioxa-4,19,22-triazatetracyclo[20.2.1.1^4,7.0^6,11]hexacosa-6,8,10-trien-17-yl]carbamate], < 10 nM.
As to `CC[C@@H]1C[C@]1(NC(=O)[C@@H]1C[C@@H]2CN1C(=O)[C@H](C1CCCCC1)NC(=O)[C@@H](NC(=O)OC(C)(C)C)COCCCc1cccc3c1CN(C3)C(=O)O2)C(=O)NS(=O)(=O)C1CC1` [Compound IIa-18, tert-butyl N-[(1R,17S,20S,23S)-20-cyclohexyl-23-{[(1R,2R)-1-[(cyclopropanesulfonyl)carbamoyl]-2-ethylcyclopropyl]carbamoyl}-3,18,21-trioxo-2,15-dioxa-4,19,22-triazatetracyclo[20.2.1.1^4,7.0^6,11]hexacosa-6,8,10-trien-17-yl]carbamate], the EC50 lay in the range of 10 to 50 nM.
Take `CC[C@@H]1C[C@]1(NC(=O)[C@@H]1C[C@@H]2CN1C(=O)[C@H](C1CCCCC1)NC(=O)[C@@H](NC(=O)OC(C)(C)C)COC/C=C/c1cccc3c1CN(C3)C(=O)O2)C(=O)NS(=O)(=O)C1CC1` [Compound IIa-19, tert-butyl N-[(1R,12E,17S,20S,23S)-20-cyclohexyl-23-{[(1R,2R)-1-[(cyclopropanesulfonyl)carbamoyl]-2-ethylcyclopropyl]carbamoyl}-3,18,21-trioxo-2,15-dioxa-4,19,22-triazatetracyclo[20.2.1.1^4,7.0^6,11]hexacosa-6,8,10,12-tetraen-17-yl]carbamate]: the 50% effective concentration (EC50) is < 10 nM.
In the case of `C=C[C@@H]1C[C@]1(NC(=O)[C@@H]1C[C@@H]2CN1C(=O)[C@H](C(C)(C)C)NC(=O)[C@@H](NC(=O)OC(C)(C)C)CCOC/C=C/c1cccc3c1CN(C3)C(=O)O2)C(=O)NS(=O)(=O)C1CC1` [Compound IIa-20], the EC50 is < 10 nM.
Take `C=C[C@@H]1C[C@]1(NC(=O)[C@@H]1C[C@@H]2CN1C(=O)[C@H](C(C)(C)C)NC(=O)[C@@H](NC(=O)OC(C)(C)C)CSC/C=C/c1cccc3c1CN(C3)C(=O)O2)C(=O)NS(=O)(=O)C1CC1` [Compound IIa-21, tert-butyl N-[(1R,12E,17R,20S,23S)-20-tert-butyl-23-{[(1R,2S)-1-[(cyclopropanesulfonyl)carbamoyl]-2-ethenylcyclopropyl]carbamoyl}-3,18,21-trioxo-2-oxa-15-thia-4,19,22-triazatetracyclo[20.2.1.1^4,7.0^6,11]hexacosa-6,8,10,12-tetraen-17-yl]carbamate]: the 50% effective concentration (EC50) is 10 to 50 nM.
Turning to `C=C[C@@H]1C[C@]1(NC(=O)[C@@H]1C[C@@H]2CN1C(=O)[C@H](C1CCCC1)NC(=O)[C@@H](NC(=O)OC(C)(C)C)COC/C=C/c1cccc3c1CN(C3)C(=O)O2)C(=O)NS(=O)(=O)C1CC1` [Compound IIa-22, tert-butyl N-[(1R,12E,17S,20S,23S)-20-cyclopentyl-23-{[(1R,2S)-1-[(cyclopropanesulfonyl)carbamoyl]-2-ethenylcyclopropyl]carbamoyl}-3,18,21-trioxo-2,15-dioxa-4,19,22-triazatetracyclo[20.2.1.1^4,7.0^6,11]hexacosa-6,8,10,12-tetraen-17-yl]carbamate], the EC50 is < 10 nM.
Regarding `C=C[C@@H]1C[C@]1(NC(=O)[C@@H]1C[C@@H]2CN1C(=O)[C@H](C(C)(C)C)NC(=O)[C@@H](NC(=O)OC(C)(C)C)COC/C=C/c1cc3c(nccc3cc1OC)O2)C(=O)NS(=O)(=O)C1CC1` [Compound IIb-1, tert-butyl N-[(3R,5S,8S,11S,15E)-8-tert-butyl-5-{[(1R,2S)-1-[(cyclopropanesulfonyl)carbamoyl]-2-ethenylcyclopropyl]carbamoyl}-18-methoxy-7,10-dioxo-2,13-dioxa-6,9,23-triazatetracyclo[15.6.2.1^3,6.0^20,24]hexacosa-1(23),15,17(25),18,20(24),21-hexaen-11-yl]carbamate], the EC50 was < 10 nM.
With `C=C[C@@H]1C[C@]1(NC(=O)[C@@H]1C[C@@H]2CN1C(=O)[C@H](C(C)(C)C)NC(=O)[C@@H](NC(=O)OC(C)(C)C)COCCCc1cc3c(nccc3cc1OC)O2)C(=O)NS(=O)(=O)C1CC1` [Compound IIb-2, tert-butyl N-[(3R,5S,8S,11S)-8-tert-butyl-5-{[(1R,2S)-1-[(cyclopropanesulfonyl)carbamoyl]-2-ethenylcyclopropyl]carbamoyl}-18-methoxy-7,10-dioxo-2,13-dioxa-6,9,23-triazatetracyclo[15.6.2.1^3,6.0^20,24]hexacosa-1(23),17(25),18,20(24),21-pentaen-11-yl]carbamate], the EC50 is < 10 nM.
